Results reported in US20180325825A1 (GEMPHIRE THERAPEUTICS INC., priority 2015, published 2018).

Legend:
[1] = background statement, cited from earlier work
[2] = Pharmacokinetics of prototype combinations of atorvastatin and gemcabene after a single oral dose to male dogs; type: in vivo, male purebred beagle dogs; details: 150 mg gemcabene IR, composite data from all animals

gemcabene pharmacokinetic profile in combination with atorvastatin prototype versus administered alone [2]: essentially the same
Compound: CC(C)(CCCCOCCCCC(C)(C)C(=O)O)C(=O)O [gemcabene, 6,6′-oxybis(2,2-dimethylhexanoic acid)]
completeness of intestinal absorption in absence or presence of food [1]: essentially unchanged
effect on the pharmacokinetics of simvastatin and atorvastatin in vivo [1]: not to significantly affect
absorption in the intestines ([1]; oral): almost complete absorption
